Experimental data as given in BindingDB's records for doi:10.1111/cbdd.12095 (Universite Lille-Nord de France, 2013).
pKi: −log10 of the molar value.

Target: Cannabinoid receptor 2 (Homo sapiens, UniProt P34972)
Experiment: Competition Binding Assay
Text: Competitive binding assay using cannabinoid receptors.

Sequence of Cannabinoid receptor 2 (P34972 whole entry): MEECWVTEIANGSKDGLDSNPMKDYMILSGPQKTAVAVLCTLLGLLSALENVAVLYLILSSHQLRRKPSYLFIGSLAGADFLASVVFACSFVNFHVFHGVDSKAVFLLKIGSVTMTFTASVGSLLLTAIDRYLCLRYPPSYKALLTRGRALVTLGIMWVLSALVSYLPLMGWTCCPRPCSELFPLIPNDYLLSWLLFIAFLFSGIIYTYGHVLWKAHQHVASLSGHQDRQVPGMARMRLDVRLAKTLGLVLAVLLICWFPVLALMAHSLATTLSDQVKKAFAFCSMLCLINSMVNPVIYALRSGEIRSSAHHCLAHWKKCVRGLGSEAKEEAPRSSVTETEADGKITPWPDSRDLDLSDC

Row | Structure (SMILES) | pKi
1 | CN(C)C(CNC(=O)C1(Cc2ccccc2)CCCCC1)c1cccs1 (stereo not drawn) [CB2 Inhibitor, 13] | 4.15
2 | C#CN1CCC2=C(C1)c1c(O)cc(C(C)C(C)CCCCC)cc1OC2(C)C (stereo not drawn) [CB2 Inhibitor, 1] | 8.64
3 | Cc1cc(C)c(CNC(=O)c2cc3c(C)nn(Cc4ccc(F)cc4)c3s2)c(=O)[nH]1 [CB2 Inhibitor, 2] | 6.84
4 | CCCn1c(SCC(=O)NCC2COc3ccccc3O2)nc2sc3c(c2c1=O)CCC3 (stereo not drawn) [CB2 Inhibitor, 12] | 4.22
5 | c1ccc2c(c1)CCCC2Nc1nc(CN2CCCCC2)nc2sc3c(c12)CCCC3 (stereo not drawn) [CB2 Inhibitor, 7] | 5.32
6 | CC1=CC(C(=O)CN2C(=O)NC(C)(c3ccc(F)cc3)C2=O)=C(C)C1CCc1cccs1 (stereo not drawn) [CB2 Inhibitor, 11] | 4.43
7 | Cc1cc(C(=O)COc2ccccc2C(N)=O)c(C)n1CCC1=CCCCC1 [CB2 Inhibitor, 4] | 6.02
8 | CC1N(C)c2ccc(P(=O)(c3ccccc3)c3ccccc3)cc2C1(C)C (stereo not drawn) [CB2 Inhibitor, 3] | 6.27
9 | CCC(CC)S(=O)(=O)c1cccc(-c2nnc(SCCN(C)C)n2C2CCCCCC2)c1 [CB2 Inhibitor, 9] | 5.03
10 | CCCC(=NNC(=O)C1CC1(c1cccc(C)c1)c1cccc(C)c1)c1ccc(OC)cc1 (stereo not drawn) [CB2 Inhibitor, 10] | 4.83
11 | O=C(CCC(=O)N1CCC(n2c(=O)[nH]c3ccccc32)CC1)c1ccc2c(c1)CCCC2 [CB2 Inhibitor, 8] | 5.05
12 | CC1CCCN(Cc2cc(-c3ccc4c(c3)OCO4)ccc2OCC(=O)NCc2ccccc2F)C1 (stereo not drawn) [CB2 Inhibitor, 6] | 5.35
13 | COc1ccc(CN2CCCn3c4c(c5cc(C)ccc53)CCCC42)cc1O (stereo not drawn) [CB2 Inhibitor, 5] | 5.63
